Results published in patent US20260243757A1, “IMMUNE CELL-DERIVED SECRETOME” (Agency for Science, Technology and Research, priority 2023, published 2026).

Tests used:
[1] = test system: CHLA-02, BT-37; assay: Cell proliferation assay (secretome-based or growth-media-based), DMSO or OTSSP167; parameters: species or system human
Method: Human myeloid-derived cells (U937) were seeded at a fixed density and stimulated with PMA and IL-4 for 48 h to obtain CD 11b+ cells. Stimulated human myeloid-derived macrophages were harvested without trypsinization (Biological replicate 1 in FIG. 4D and FIG. 5E) and with trypsinization (Biological replicate 2 and 3 in FIG. 4D and FIG. 5E). These cells highly express CD11b+ with or without trypsinization (FIG. 14A). CD11b+ cells were washed twice with PBS. CD11b+ cells were plated at a fixed density in 1 ml of pure RPMI (serum-free) to obtain CD11b+ supernatants (Condition 2). CD11b+ cells (same density) were co-incubated with tumour cells at 1:1 ratio in pure RPMI (serum-free) to obtain co-culture supernatant (Condition 3). Tumour cells were seeded at the same density to obtain tumour supernatant (Condition 1). […]
Tumour cells were suspended in 3 types of cell-free supernatants: CD 11b+ supernatant, tumour supernatant, and CD11b+-tumour co-culture supernatant. […] Cell viability was determined by a kit at 4 h, 24 h, 48 h, 72 h time points, over a period of 3 days. Optical density (OD) was measured using a fluorescence/luminescence detection system (FIGS. 4A, 4B, FIG. 18). All other absorbance (OD) was measured at 450 nm using a multilabel plate reader. Absorbance of wells with serum-free pure RPMI was used as blank.

[2] = test system: CHLA-02; assay: Photomicrographs of growth morphology in T75 flasks; type: cell-based, human; conditions: OTSSP167 in secretome versus standard growth media
[3] = test system: BT-37; assay: Proliferation assay (standard growth media), OTSSP167 dose-response; type: cell-based, human
Method: (§1) Tumour cells were seeded in quadruplicates for each treatment condition (FIG. 5B). OTSSP167 was added. Cell proliferation was determined, and optical density (OD) was measured using a fluorescence/luminescence detection System.

[4] = test system: Daoy; assay: Drug treatment in secretome versus standard media (FIG. 41); type: cell-based, human
[5] = test system: autopsy-derived patient-derived orthotopic xenograft (PDOX) Model of ATRT; assay: Orthotopic xenograft survival, intraperitoneal OTSSP167; type: in vivo, mice; conditions: 5 mg/kg daily intraperitoneal for 14 days; p=0.032, Log-rank test
Method: (§2) Rag2/Severe combined immune deficiency (SCID) mice were bred and housed in a pathogen-free facility. Surgical implantation of tumour cells ([…]) into mouse cerebrum was performed using the method of the present disclosure previously described by studies in the art. The general recommendations in ARRIVE guidelines 2.0 (https://arriveguidelines.org/) were followed in the study of the present disclosure. The sample size of the present disclosure was small. […] The animals were randomly assigned into treatment versus control groups to have approximately equal number of animals per group. […] Treatment was delivered to animals assigned in treatment group, cage-by-cage. Blinding was not possible as the inventor of the present disclosure have a small team of 2-3 individuals working with the animals and the inventor of the present disclosure are all involved at various stages and day-to-day processes of the animal work. Separate batches comprising of various litters were used, minimizing bias from the same litter effect. The inventor of the present disclosure has previously published using this animal protocol and is not otherwise deposited in any repository/registry.
OTSSP167 was dissolved in a solution of dimethyl sulfoxide, Kolliphor® EL and sterile water. […]
Mice were carefully monitored daily their fitness using a clinical staging system we previously published. […]

[6] = test system: CHLA-02; assay: Proliferation assay (standard growth media), OTSSP167 dose-response; type: cell-based; conditions: Homo sapiens, 96 h, Day 4
Method: as §1

[7] = test system: CHLA01 (primary tumour cells); assay: Drug treatment in secretome versus standard media (FIG. 41); type: cell-based, human; conditions: CHLA01 neurospheres
[8] = test system: six ATRT cell lines; assay: Proliferation assay (standard growth media), panel; type: cell-based, human; conditions: over 13 days
Method: as §1

[9] = test system: CHLA01R (recurrent/relapse tumour cells); assay: Drug treatment in secretome versus standard media (FIG. 41); type: cell-based, human; conditions: CHLA01R neurospheres
[10] = test system: CHLA-02; assay: Apoptosis assay of OTSSP167-treated cells, standard growth media versus six-factor secretome; type: cell-based, human; conditions: FIG. 37
Method: (§3) Tumour cells were cultured in either standard growth media or six-factor-secretome for […] different duration −4 h, 24 h, 48 h and 96 h (FIG. 5G). To study the killing effect of OTSSP167, tumour cells cultured in each condition (standard growth media or six-factor-secretome) were treated with OTSSP167. Cells were harvested at respective timepoints and stained with FITC-Annexin V and/or Propidium lodide. Stained cells were then analysed by flow cytometry at the excitation wavelength of 488 nm (FITC) and 595 nM (PI). A total of 10,000 cells were analysed per measurement.

[11] = test system: BT-37; assay: as above; type: cell-based, human
Method: as §3

[12] = test system: CHLA-02 and BT-37 cells; assay: Immunoblotting after OTSSP167 treatment; type: cell-based, human
Method: Cells were lysed in RIPA buffer with 1% Protease and Phosphatase Inhibitor Cocktail on ice. Protein samples were first denatured with 5% β-mercaptoethanol in Laemmli's buffer at 95° C. Protein concentration was determined using Protein Assay Kit. Protein lysates were resolved, and equal amounts of denatured proteins was run on NuPAGE 4-12% Bis-Tris Protein Gel and transferred onto PVDF membrane. Membrane blots for phosphorylated Histone H2A.X were blocked with 5% Bovine serum albumin (BSA) in 1× TBS-T ([…] Tris-buffered Saline, 0.1 % Tween® 20). Other membrane blots were blocked with 5% skim milk in 1× TBS-T for 1 hour and incubated with its respective primary antibodies at 4° C. overnight. Protein bands were visualized using an imaging system with Western blotting substrate. Primary antibodies used were: Eg5, cleaved PARP, β-actin, cleaved caspase-3, and p53, p-Histone H2A.X, p21. Secondary antibodies included: anti-rabbit IgG HRP-linked and anti-mouse IgG HRP linked.

[13] = test system: ATRT cell lines and medulloblastoma; assay: Drug efficacy in the presence of the secretome; type: cell-based, human; conditions: during early tumourigenesis
[14] = test system: CHLA-02; assay: Flow cytometry for apoptotic cell death (Annexin V/PI); type: cell-based, human; conditions: CHLA-02 cells; 48 hours of OTSSP167 treatment
Method: (§4) Tumour cells were treated in culture with OTSSP167 to detect apoptosis (FIG. 5C). At each timepoint, cells were harvested and stained with Annexin V-FITC and PI. Stained cells were then analysed by flow cytometry at the excitation wavelength of 488 nm (FITC) and 595 nM (PI). Cultured cells were treated with OTSSP167 to study the cell cycle changes. Cells were harvested and fixed with absolute ethanol. Fixed cells were stained with PI/RNase A master mix (PI and RNase A) prior to analysis by flow cytometry.

[15] = test system: BT-37; assay: as above; type: cell-based, human; conditions: BT-37 cells; 48 hours of OTSSP167 treatment
Method: as §4

[16] = test system: another ATRT mouse model; conditions: cited from earlier work
[17] = test system: D341; assay: Drug treatment in secretome versus standard media (FIG. 41); type: cell-based, human
[18] = test system: CHLA-04; assay: Proliferation assay (standard growth media), OTSSP167; type: cell-based, human; conditions: MELK-low CHLA-04; 50 nM dose
Method: as §1

[19] = test system: Medulloblastoma; assay: Ispinesib in PDX brain tumors implanted using secretome+Tumor (Batch 94B); type: in vivo, mice; conditions: 10 mg/kg intraperitoneally every four days for three doses, repeated on day 21
Method: as §2
OTSSP167 was dissolved in a solution of dimethyl sulfoxide, Kolliphor® EL and sterile water. A daily dose of 5 mg/kg of OTSSP167 was administered to the mice via intraperitoneal injection for 14 days. […]

CC(=O)c1cnc2ccc(-c3cc(Cl)c(O)c(Cl)c3)nc2c1N[C@H]1CC[C@H](CN(C)C)CC1 [OTSSP167, 1-(6-(3,5-dichloro-4-hydroxyphenyl)-4-(((1r,4r)-4-((dimethylamino)methyl)cyclohexyl)amino)-1,5-naphthyridin-3-yl)ethenone]
OTSSP167 efficacy in six-factor-secretome compared to standard growth media (tumour proliferation) [1]: decreased | growth morphology of tumour cells treated with OTSSP167 in secretome [2]: maintained their interlacing, web-like architecture | IC50 ([3]; Homo sapiens, 96 h, BT-37, Day 4): 70.4 nM | effect against tumour cells ([3]; MELK-high BT-37 cells, 5 nM dose): effective | cell death/survival with drug in secretome compared to standard media [4]: higher cell death | overall survival of animals [5]: significantly improved | IC50 [6]: 20.8 nM | cell death/survival with drug in secretome compared to standard media [7]: survive better | efficacy across panel of ATRT cell lines (dose-response) [8]: efficacious across a panel of six ATRT cell lines in nanomolar ranges | cell death/survival with drug in secretome compared to standard media [9]: survive better | cell death with OTSSP167 in secretome compared to standard media conditions [10]: more cell death | cell death with OTSSP167 in secretome compared to standard media conditions ([11]; BT-37, FIG. 38): more cell death | cell death of OTSSP167-treated BT-37 versus CHLA-02 in secretome ([11]; in secretome after 24-48 h): more cell death than CHLA-02 cells | p-Histone H2A.X (DNA damage) ([12]; 24 h, 48 h and 72 h treatment): increased | c-PARP (intrinsic apoptosis pathway) ([12]; OTSSP167 treatment): increased | p53 ([12]; OTSSP167 treatment): increased | drug efficacy in the presence of the secretome [13]: reduced | early and late apoptotic cells [14]: 50.7% | early and late apoptotic cells [15]: 58.1% | blood-brain-barrier penetration [16]: penetrate blood-brain-barrier | cell death/survival with drug in secretome compared to standard media [17]: higher cell death | effect against tumour cells [18]: effective

Cc1ccc(C(=O)N(CCCN)[C@@H](c2nc3cc(Cl)ccc3c(=O)n2Cc2ccccc2)C(C)C)cc1 [Ispinesib, (R)-N-(3-aminopropyl)-N-(1-(3-benzyl-7-chloro-4-oxo-3,4-dihydroquinazolin-2-yl)-2-methylpropyl)-4-methylbenzamide]
efficacy in PDX brain tumors implanted using secretome+Tumor [19]: effective | cell death/survival with drug in secretome compared to standard media [7]: survive better | cell death/survival with drug in secretome compared to standard media [9]: survive better | drug efficacy in the presence of the secretome [13]: reduced | cell death/survival with drug in secretome compared to standard media [17]: survive better
